We go through three compounds from ChEMBL document CHEMBL1159059, “Fluoroalkene modification of mercaptoacetamide-based histone deacetylase inhibitors” (Bioorg Med Chem, 2010).

This test concerns the target Histone deacetylase. The test is described as follows: Inhibition of HDAC in human HeLa cell nuclear extract by fluorescence assay. Format: cell-based.

`O=C(NCCCCC/C=C(\F)CS)c1ccccc1`: the IC50 was 290 nM. `O=C(CCCC/C=C(\F)CS)Nc1ccccc1` showed an IC50 of 510 nM. In turn, `O=C(CCCCC/C=C(\F)CS)Nc1ccccc1` displayed an IC50 of 360 nM.
